Where two headings read alike, the source gives them in different places.
How the values were obtained:
NCI-H322M = settings: NCI-H322M
NCI-H460 [1] = system: NCI-H460
UACC-257 [2] = system: UACC-257
NCI/ADR-RES [3] = settings: NCI/ADR-RES
NCI-H460 [4] = test: cells; settings: Homo sapiens, NCI-H460, 48 h
NCI-H522 = test: cells; settings: Homo sapiens, NCI-H522, 48 h
SF-295 = test: cells; settings: Homo sapiens, SF-295, 48 h
SNB-19 = test: cells; settings: Homo sapiens, SNB-19, 48 h
LOX IMVI = test: cells; settings: Homo sapiens, 48 h
SK-MEL-5 = test: cells; settings: Homo sapiens, SK-MEL-5, 48 h
UACC-257 [5] = test: cells; settings: Homo sapiens, UACC-257, 48 h
OVCAR-8 = test: cells; settings: Homo sapiens, OVCAR-8, 48 h
NCI/ADR-RES [6] = test: cells; settings: Homo sapiens, 48 h
MDA-MB-231/ATCC = test: cells; settings: Homo sapiens, MDA-MB-231, 48 h
BT-549 = test: cells; settings: Homo sapiens, BT-549, 48 h
[7] = Log10 Concentration −4.0, Molar
[8] = Log10 Concentration −5.0, Molar
[9] = Log10 Concentration −6.0, Molar
[10] = Log10 Concentration −7.0, Molar
[11] = Log10 Concentration −8.0, Molar

Compound: CCOC(=O)C[C@@H]1C(O[Si](C)(C)C(C)(C)C)[C@H](n2cnc3c(NC(=O)Nc4ccccc4)ncnc32)O[C@@H]1CNC(=O)NC (stereo partly shown) [Compound 10]
- TGI (EKVX; 48 h): >1.00E−4 Molar
- Percent Growth (EKVX; [7]): 42%
- Percent Growth (EKVX; [8]): 53%
- Percent Growth (EKVX; [9]): 91%
- Percent Growth (EKVX; [10]): 90%
- Percent Growth (EKVX; [11]): 92%
- TGI (NCI-H322M; 48 h): >1.00E−4 Molar
- Percent Growth (NCI-H322M; [7]): 72%
- Percent Growth (NCI-H322M; [8]): 89%
- Percent Growth (NCI-H322M; [9]): 95%
- Percent Growth (NCI-H322M; [10]): 90%
- Percent Growth (NCI-H322M; [11]): 105%
- TGI (NCI-H460 [1]; 48 h): 2.50E−5 Molar
- Percent Growth (NCI-H460 [1]; [7]): −49%
- Percent Growth (NCI-H460 [1]; [8]): 32%
- Percent Growth (NCI-H460 [1]; [9]): 101%
- Percent Growth (NCI-H460 [1]; [10]): 102%
- Percent Growth (NCI-H460 [1]; [11]): 102%
- TGI (COLO 205; 48 h): >1.00E−4 Molar
- Percent Growth (COLO 205; [7]): 3%
- Percent Growth (COLO 205; [8]): 20%
- Percent Growth (COLO 205; [9]): 93%
- Percent Growth (COLO 205; [10]): 97%
- Percent Growth (COLO 205; [11]): 102%
- TGI (SNB-75; 48 h): >1.00E−4 Molar
- Percent Growth (SNB-75; [7]): 22%
- Percent Growth (SNB-75; [8]): 32%
- Percent Growth (SNB-75; [9]): 85%
- Percent Growth (SNB-75; [10]): 90%
- Percent Growth (SNB-75; [11]): 92%
- TGI (U251; 48 h): 2.09E−5 Molar
- Percent Growth (U251; [7]): −61%
- Percent Growth (U251; [8]): 28%
- Percent Growth (U251; [9]): 94%
- Percent Growth (U251; [10]): 95%
- Percent Growth (U251; [11]): 98%
- TGI (UACC-257 [2]; 48 h): >1.00E−4 Molar
- Percent Growth (UACC-257 [2]; [7]): 9%
- Percent Growth (UACC-257 [2]; [8]): 34%
- Percent Growth (UACC-257 [2]; [9]): 99%
- Percent Growth (UACC-257 [2]; [10]): 102%
- Percent Growth (UACC-257 [2]; [11]): 102%
- TGI (OVCAR-4; 48 h): >1.00E−4 Molar
- Percent Growth (OVCAR-4; [7]): 16%
- Percent Growth (OVCAR-4; [8]): 53%
- Percent Growth (OVCAR-4; [9]): 95%
- Percent Growth (OVCAR-4; [10]): 103%
- Percent Growth (OVCAR-4; [11]): 98%
- TGI (OVCAR-5; 48 h): >1.00E−4 Molar
- Percent Growth (OVCAR-5; [7]): 27%
- Percent Growth (OVCAR-5; [8]): 72%
- Percent Growth (OVCAR-5; [9]): 95%
- Percent Growth (OVCAR-5; [10]): 103%
- Percent Growth (OVCAR-5; [11]): 104%
- TGI (ACHN; 48 h): >1.00E−4 Molar
- Percent Growth (ACHN; [7]): 35%
- Percent Growth (ACHN; [8]): 47%
- Percent Growth (ACHN; [9]): 96%
- Percent Growth (ACHN; [10]): 97%
- Percent Growth (ACHN; [11]): 107%
- TGI (CAKI-1; 48 h): >1.00E−4 Molar
- Percent Growth (CAKI-1; [7]): 7%
- Percent Growth (CAKI-1; [8]): 88%
- Percent Growth (CAKI-1; [9]): 99%
- Percent Growth (CAKI-1; [10]): 95%
- Percent Growth (CAKI-1; [11]): 88%
- TGI (SN12C; 48 h): >1.00E−4 Molar
- Percent Growth (SN12C; [7]): 11%
- Percent Growth (SN12C; [8]): 48%
- Percent Growth (SN12C; [9]): 103%
- Percent Growth (SN12C; [10]): 101%
- Percent Growth (SN12C; [11]): 101%
- TGI (TK-10; 48 h): 4.05E−5 Molar
- Percent Growth (TK-10; [7]): −38%
- Percent Growth (TK-10; [8]): 59%
- Percent Growth (TK-10; [9]): 105%
- Percent Growth (TK-10; [10]): 103%
- Percent Growth (TK-10; [11]): 98%
- TGI (NCI/ADR-RES [3]; 48 h): >1.00E−4 Molar
- Percent Growth (NCI/ADR-RES [3]; [7]): 59%
- Percent Growth (NCI/ADR-RES [3]; [8]): 80%
- Percent Growth (NCI/ADR-RES [3]; [9]): 104%
- Percent Growth (NCI/ADR-RES [3]; [10]): 107%
- Percent Growth (NCI/ADR-RES [3]; [11]): 105%
- GI50 (NCI-H460 [4]): 5.54 µM
- CC50 (NCI-H460 [4]; read-out: LC50): > 100 µM
- GI50 (NCI-H522): 4.36 µM
- CC50 (NCI-H522; read-out: LC50): > 100 µM
- GI50 (SF-295): 5.73 µM
- CC50 (SF-295; read-out: LC50): > 100 µM
- GI50 (SNB-19): 29 µM
- CC50 (SNB-19; read-out: LC50): > 100 µM
- GI50 (LOX IMVI): 5.46 µM
- CC50 (LOX IMVI; read-out: LC50): > 100 µM
- GI50 (SK-MEL-5): 4.34 µM
- CC50 (SK-MEL-5; read-out: LC50): > 100 µM
- GI50 (UACC-257 [5]): 5.68 µM
- CC50 (UACC-257 [5]; read-out: LC50): > 100 µM
- GI50 (OVCAR-8): 4.92 µM
- CC50 (OVCAR-8; read-out: LC50): > 100 µM
- GI50 (NCI/ADR-RES [6]): > 100 µM
- CC50 (NCI/ADR-RES [6]; read-out: LC50): > 100 µM
- GI50 (MDA-MB-231/ATCC): 3.96 µM
- CC50 (MDA-MB-231/ATCC; read-out: LC50): > 100 µM
- GI50 (BT-549): > 100 µM
- CC50 (BT-549; read-out: LC50): > 100 µM

— US20100152434A1, “Protein Kinase-binding Nucleosides and Associated Methods” (priority 2007, published 2010)
